In assay [1] the test system is collagen-induced arthritis in DBA/1 J mice. Description: Oral administration of peptide in collagen-induced arthritis (CIA). It is filed as in vivo, mouse. The method, then:
(§1) Figure 6 Oral tolerance of MycHSP70_287–306 peptides in a collagen-induced arthritis model. (A,B) The MycHSP70_287–306 peptide or control (PBS alone) was orally administered to bovine type II collagen-immunized DBA/1 J mice after the occurrence of CIA for 5 continuous days (n = 12). Mice were sacrificed on day 35. Arthritis scores were measured by finger and paw swelling, and histological scores were measured by cell infiltration (C), pannus formation (P), and bone destruction (B). (C) Splenic CD4^+ T cell proliferation from CIA-induced DBA/1 J mice in response to a recall antigen (Ag) stimulation (MycHSP70_287–306 and BiP336–355 epitopes, and heat-denatured bovine type II collagen (BC II)). Proliferation was determined by[3]-H thymidine incorporation. (D) Serum anti-BiP and anti-BC II antibody titers were measured by ELISA. (E,F) Mouse IL-10 and TGF-beta1 concentrations in the splenic CD4^+ T cell culture were measured by ELISA. Data were representative of at least three independent trials. *p < 0.05, **p < 0.01, ***p < 0.001.
Serum antibodies were measured by ELISA as previously reported. Briefly, 96-well plates (Thermo Fisher Scientific) were coated with 5 μg/mL of each antigen and dissolved in 0.1 M NaHCO3. Diluted samples (100x) were applied, followed by goat anti-human IgG-horseradish peroxidase (HRP) (5000:1,Vector) or goat anti-mouse IgG-HRP (5000:1, Life Technologies) detection antibodies and TMB solution (KPL) for development.
(§2) CIA in the background of DBA/1 J female mice (SLC Japan) was performed and arthritis scores were acquired as previously described. In the therapeutic experiments, mice were administered 200 μg of MycHSP287–306 peptides orally for 5 continuous days following the onset of arthritis. Mice were sacrificed on day 35, and the CD4^+ T cell culture was performed as described above. Mouse cytokine concentrations in the supernatants were measured using a mouse IL-10 ELISA kit and mouse/human TGF-beta 1 ELISA kit (eBioscience) according to the manufacturer’s protocol. Tissue samples were embedded in paraffin wax after 10% formaldehyde fixation and decalcification. Sections were stained with hematoxylin and eosin. Synovial tissues were graded by mononuclear cell infiltration, pannus formation, and cartilage erosion, as described previously. All animal experiments were conducted in accordance with Institutional and National Guidelines, and the protocols were approved by the Ethical Committee on Animal Experiments of the University of Tokyo. […]
Oral tolerance of MycHSP70287-306 peptides on collagen-induced arthritis (CIA) model. The experimental protocol was the same as Figure 6.
(A)(B)Mouse IL-17 and IFN-gamma concentrations in the splenic CD4+ T cell culture was measured by ELISA (Mouse cytokine ELISA ready-set-go, eBioscience) according to the manufacture’s protocol. (C) The frequencies of splenic regulatory T cells in CIA (n=4, each). FACS analysis was performed by FACS Vantage (BD Bioscience). Cells were stained by anti-mouse CD4
APC antibody, anti-mouse CD25 FITC antibody, FOXP3 staining was performed using anti-mouse Foxp3 PE antibody (eBioscience) by using […]

Assay [2] deals with CD4+ T cells from MycHSP70-immunized HLA-DR4 transgenic mice. In words: Splenic CD4+ T cell proliferation from MycHSP70-immunized HLA-DR4 transgenic mice in response to epitopes. The following applies: antigen 10 μg/mL, 72 h, irradiated splenocytes, 3H-thymidine. It is filed as cell-based, mouse. As for the experimental part:
Figure 5 Immunization of HLA-DR4 transgenic mice with MycHSP70. (A) HLA-DR4 transgenic mice were immunized with recombinant MycHSP70. Serum anti-MycHSP70 and anti-mouse BiP antibody titers were measured in the 21 days following the first immunization. (B) Splenic CD4+ T cell proliferation from MycHSP70-immunized HLA-DR4 transgenic mice in response to MycHSP70_287–306 and BiP336–355 epitopes. Proliferation was determined by the incorporation of [3]-H thymidine. Data were representative of at least three independent trials. ***p < 0.001.
(§3) HLA-DR4 transgenic mice were obtained from Taconic, immunized twice (day 0, 14) with 100 μg of MycHSP70 with the same volume of complete Freund’s adjuvant subcutaneously into the tails, and sacrificed on day 21. MACS-purified CD4^+ T cells (1 × 10^5/mL) were cultured with irradiated splenocytes (1 × 10^6/mL) and an antigen (10 μg/mL) in RPMI 1640 medium supplemented with 5% FCS, 2 mM L-glutamine, 100 U/ml penicillin, 100 μg/ml streptomycin, and 5 × 10^−5 M 2-mercaptoethanol in a humidified incubator at 37 °C, 5% CO2, for 72 h. ^3H-thymidine was pulsed to each well, cells were harvested after an 18-hour incubation, and analyzed with a scintillation counter.

Assay [3] has as its system splenic CD4+ T cells from CIA-induced DBA/1 J mice. In words: Splenic CD4+ T cell recall culture from CIA mice after oral peptide (proliferation, cytokine ELISA). It is filed as cell-based, mouse. As for the experimental part: as §1, with “(A,B)” for “Figure 6 Oral tolerance of MycHSP70_287–306 peptides in a collagen-induced arthritis model. (A,B)”, “ELISA.” for “ELISA. Data were representative of at least three independent trials. *p < 0.05, **p < 0.01, ***p < 0.001.”
as §3, §2
The experimental protocol was the same as Figure 6.
(A)(B)Mouse IL-17 and IFN-gamma concentrations in the splenic CD4+ T cell
culture was measured by ELISA (Mouse cytokine ELISA ready-set-go,
eBioscience) according to the manufacture’s protocol. […]
(An ELISA detects its analyte on a solid surface through an enzyme-linked reagent.)

The mark [4] stands for this setting: CIA mice given peptide orally vs PBS, ELISA.
Where [5] appears, read: MycHSP70_287–306 and BiP336–355 recall stimulations, peptide-treated mice, ELISA.
[6] abbreviates: mice given MycHSP70_287–306 orally vs PBS, 3H-thymidine.

On to DRTRKPFQSVIADTGISVSE [MycHSP70_287–306], for which, in assay [1] (200 μg peptide orally for 5 continuous days after onset of arthritis, vs PBS, n = 12, sacrificed day 35), the “development of arthritis (arthritis scores)” value is on record as “significantly improved”. Also, the histological scores entry in assay [1] (200 μg peptide orally for 5 continuous days, cell infiltration, pannus formation, bone destruction, day 35) is “significantly improved”. In assay [1] (setting [4]), the “serum anti-BC II antibody titers” value was “significantly decreased” and the “serum anti-BiP antibody titers” value is on record as “significantly decreased”. Also, the “frequency of CD4+ CD25+ Foxp3+ regulatory T cells” value in assay [1] (splenic, CIA mice given peptide orally vs PBS, n=4 each, FACS) is “increased”. Moreover, the “CD4+ T cell proliferation in response to peptide” value in assay [2] is recorded as “significant CD4^+ T cell proliferation was induced”. For the same sequence, in assay [3] (setting [5]), the “secretion of IL-10 from CD4+ T cells” value was “induced” and the “secretion of TGF-β1 from CD4+ T cells” value was “induced”. In assay [3] (setting [6]), the “proliferation of CD4+ T cells in response to BiP336–355 recall” value is “reduced” and the “proliferation of CD4+ T cells in response to MycHSP70_287–306 recall” value was “reduced”. Further, the “bovine type II collagen-specific T cell proliferation” value in assay [3] (mice given MycHSP70_287–306 orally vs PBS, heat-denatured BC II recall) is reported as “suppressed”. Also, in assay [3] (mouse IL-17 and IFN-gamma by ELISA, mice given peptide orally vs PBS (Supplementary Figure S2)), the “pro-inflammatory cytokine secretion from CD4+ T cells” value is on record as “suppressed”.

The values above are taken from publication PMC4772543, “Immune responses to Mycobacterial heat shock protein 70 accompany self-reactivity to human BiP in rheumatoid arthritis” (Scientific Reports, 2016).
